{
  "source": "paper PMC5219937",
  "about": "(Bioconjugate chemistry, 2015)",
  "key": {"[1]": {"conditions": "cited from earlier work"}, "[2]": {"test_system": "type 2 diabetic C57BL/6 db/db mice", "test": "Hypoglycemic effect after subcutaneous injection in db/db mice", "type": "in vivo, mouse"}},
  "note": "Like-named read-outs stand apart in the source and are kept apart here.",
  "data": [
    {"substance": "Albiglutide: a exendin-4-albumin fusion protein, FDA approved, once a week administration", "values": [
      {"measurement": "half-lifetime", "setting": "[1]", "value": "96 to 170", "unit": "h"},
      {"measurement": "blood glucose level", "setting": "[2]; dose 14 nmol/kg (Figure S8b)", "value": 11.88, "unit": "mmol/L"},
      {"measurement": "time required to rebound to a glucose level of 8.35 mmol/L (hypoglycemic duration)", "setting": "[2]; dose 69 nmol/kg", "value": 11, "unit": "h"},
      {"measurement": "lowest glucose level", "setting": "[2]; dose 69 nmol/kg, three mice, mean", "value": 7.03, "unit": "mmol/L"},
      {"measurement": "lowest glucose level", "setting": "[2]; dose 123 nmol/kg (Figure S8c)", "value": 6.67, "unit": "mmol/L"},
      {"measurement": "time required to rebound to a glucose level of 8.35 mmol/L (hypoglycemic duration)", "setting": "[2]; dose 123 nmol/kg (Figure S8d)", "value": 28, "unit": "h"}
    ]},
    {"substance": "Exenatide: commercial exendin-4", "values": [
      {"measurement": "circulating half-life", "setting": "[1]", "value": "1.5 to 3.6", "unit": "h"}
    ]},
    {"substance": "GLP-1: 30-amino-acid peptide hormone secreted from gut endocrine L cells", "values": [
      {"measurement": "half-lifetime", "setting": "[1]; endogenous GLP-1, degraded by DPP-4 once secreted", "value": "0.017 to 0.033", "unit": "h"}
    ]}
  ]
}
